# Earlier results as cited in US7807833B2, “Method for total synthesis of ecteinascidins and intermediate compounds thereof” (Japan Science and Technology Agency, priority 2002, dated 2010).
# System: cancer cells
Compound,"IC50 (background statement, cell lines not named, read-out: IC50, depressing the proliferation of cancer cells)","times more potent than Toxol, Camptotesin, Adriamycin or Mitomycin in depressing the proliferation of cancer cells (relative to currently used carcinostatic agents)",antineoplastic activity compared with ET 743 (qualitative background statement)
"COc1cc2c(cc1O)CCN[C@]21CS[C@@H]2c3c(OC(C)=O)c(C)c4c(c3[C@H](COC1=O)N1[C@@H]2[C@H]2c3c(cc(C)c(OC)c3O)C[C@@H]([C@@H]1O)N2C)OCO4 [Et 743, ecteinascidin 743]",0.1 to 1 nM,10 to 100 times,
COc1c(C)cc2c(c1O)[C@@H]1[C@@H]3Cc4c(OC(C)=O)c(C)c5c(c4[C@H](CN4C(=O)c6ccccc6C4=O)N3[C@@H](C#N)[C@H](C2)N1C)OCO5 [phthalascidin],,,same activity to ET 743
